Columns and labels:
GPAT = assay: Semiquantitative RT-PCR in liver tissue: GPAT; type: in vivo, C57BL/6J mice; settings: vs HF, 4 weeks
Description: (§1) The difference indicates the daily food intake.
(§2) Total RNA from liver tissue was isolated with a Trizol Reagent (Molecular Research Center, Inc., Cincinnati, Ohio, USA) according to the manufacturer's instructions. The integrity of the extracted total RNA was examined by 2% agarose gel electrophoresis, and the RNA concentration was determined by […] ultraviolet (UV) light absorbency at 260 nm and 280 nm (Spectrophotometer U-2800A, Hitachi). The total RNA (1 μg) was reverse transcribed to cDNA, and 5 μL Moloney murine leukemia virus reverse transcriptase (TEpicentre, Madison, Wis., USA). The PCR was performed in a final 25 μL containing 1 U Blend Taq-Plus (TOYOBO, Japan), 10 μL of the RT cDNA product, 10 μM of each forward (F) and reverse (R) primer, 75 mM Tris-HCL (pH 8.3) containing 1 mg/L Tween 20 (pH 8.3, also known as polyoxyethylene sorbitan monolaurate), 2.5 mM dNTP (deoxy-ribonucleoside triphosphate), and 2 mM MgCl2 (magnesium chloride). The PCR products were analyzed by 2% agarose gel and stained with ethidium bromide.

11β-HSD1 = assay: Semiquantitative RT-PCR in liver tissue: 11β-HSD1; type: in vivo, C57BL/6J mice; settings: vs HF, 4 weeks
Description: as §1, §2

phospho-AMPK(Thr172) = assay: Western blot of phospho-AMPK(Thr172)/total-AMPK in skeletal muscle and liver of HFD mice; settings: compared to HF, 4 weeks
Description: (§3) The HFD mice were subdivided into 6 groups (9 per group) followed by 8-week induction. […] Following four-week treatment and feeding, the food was removed, and the mice were fasted for 12 h and then sacrificed. Tissue samples required were collected from the mice and weighted. Some of the tissue samples were immediately stored at −80° C. and frozen for subsequent target gene analysis. Plasma samples were collected via centrifugation of whole blood at 1600×g for 15 min at 4° C., followed by plasma separation within 30 min.
(§4) We determined PPARα and FAS protein expression levels in liver tissue, PPARγ and FAS protein expression levels in adipose tissue, and membrane GLUT4 expression in skeletal muscle adipose. The total membrane fraction was collected with the buffer and determined as previously described. The membrane GLUT4, p-AMPK, and total AMPK protein content were determined by Western Blotting as previously described.

[1] = HFD-induced diabetic mice: fasting blood glucose and biochemical indexes; settings: 4 weeks; for Blood glucose: 12 h fasted HFD mice; for Plasma FFA / Insulin / Leptin / TC / TG: HFD mice; for Insulin / Leptin: blood; for TC / TG: plasma
Description: The control group and HFD group contained 10% and 45% fat intake, respectively. The HFD mice were subdivided into 6 groups (9 per group) followed by 8-week induction. […] During the experiment, all mice were fasted overnight, and blood samples were collected from the retro-orbital sinus. Following four-week treatment and feeding, the food was removed, and the mice were fasted for 12 h and then sacrificed. Tissue samples required were collected from the mice and weighted. Some of the tissue samples were immediately stored at −80° C. and frozen for subsequent target gene analysis. Plasma samples were collected via centrifugation of whole blood at 1600×g for 15 min at 4° C., followed by plasma separation within 30 min. Some plasma samples obtained were used for TG and TC analysis. The metabolic parameters, including body weight, weight gain, and food intake, were performed as follows. Body weight was daily measured throughout the study. Body weight gain is considered as the difference between one day and the next day. The total weight of food intake was daily measured, followed by weighing the amount of remaining feed after 24 h. The difference indicates the daily food intake.
One part of the forgoing blood samples collected from the retro-orbital sinus of 12 h fasted mice was immediately used for analysis of glucose levels. The other part was used for analysis of blood TG, TC, free fatty acids, blood insulin, leptin, and adiponectin levels. Blood glucose levels were determined by a glucose analyzer (Model 1500 sidekick glucose analyzer, YSI). Plasma triglycerides (TG), total cholesterol (TC), and free fatty acids (FFA) were determined using commercial kits in accordance with manufacturer's instructions (Triglycerides-E test, Cholesterol-E test, and FFA-C test; Wako Pure Chemical, Osaka, Japan). Insulin and leptin levels were measured by enzyme-linked immunosorbent assay (ELISA) (mouse insulin ELISA kit, Mercodia, Uppsala, Sweden; mouse leptin ELISA kit, Morinaga, Yokohama, Japan).

SREBP-1c = assay: Semiquantitative RT-PCR in liver tissue: SREBP-1c; type: in vivo, C57BL/6J mice; settings: vs HF, 4 weeks
Description: as §1, §2

[2] = test system: phospho-Akt(Ser473)/total-Akt(Ser473); assay: phospho-Akt(Ser473)/total-Akt in C2C12 myotube cells (Western blot); type: cell-based; settings: TT 10 and 25 μg/mL, 25 min
Description: In the present invention, C2C12 skeletal myoblasts (ATCC, CRL-1772) were maintained in growth media consisting of Dulbecco's modified Eagle's medium (DMEM) (Gibco BRL) and supplemented with 10% Fetal Bovine Serum (FBS) (Hyclone) and 100 U/mL penicillin/100 μg/mL streptomycin (Gibco BRL), and split 1:4 using 0.05% trypsin when 80% confluent. Myoblasts were diluted and placed in a 9 cm-diameter dish. Cells were cultured to achieve 80%-90% confluency and then the growth media was changed as 2% FBS/DMEM every 24 h for 5-7 days.
In experiments for determining GLUT4 and p-Akt(Ser473)/t-Akt proteins in tubes, differentiated C2C12 cells were serum-starved in DMEM/BSA for 2 h at 37° C. prior to incubation with MeOH crude extract (at 20, 100, 200, and 500 μg/mL), test compounds (at 1, 5, 10, and 25 μg/mL), or vehicle for 25 min, or 100 nM insulin for 25 min.
The cultures obtained by cell culture above were centrifuged, and the resulting pellet was resuspended in a homogenization buffer. The forgoing steps were performed with a filtration membrane. Protein concentrations were measured using a BCA assay (Pierce). Equal amounts of protein were diluted four times in SDS sample buffer, and subjected to SDS PAGE and Western blotting with antibodies specific for Akt, p-Akt Ser^473, and GLUT4. Density blotting analysis was performed using Alpha Easy FC software.

FAS = assay: Western blot of FAS protein in liver and adipose tissue of HFD mice; settings: compared to HF, 4 weeks
Description: as §3, §4

membrane GLUT4 = assay: Western blot of skeletal muscle membrane GLUT4 in HFD mice; settings: compared to HF, 4 weeks
Description: as §3, §4

SMILES: C=C(CC[C@@H](C(=O)O)[C@H]1CC[C@@]2(C)C3=CC[C@H]4C(C)(C)[C@@H](O)CC[C@]4(C)C3=CC[C@]12C)C(C)C [TT, dehydroeburicoic acid]
- GPAT mRNA expression level in liver (GPAT; HF+TT1, 10 mg/kg/day oral): decreased
- GPAT mRNA expression level in liver (GPAT; HF+TT2, 20 mg/kg/day oral): decreased
- GPAT mRNA expression level in liver (GPAT; HF+TT3, 40 mg/kg/day oral): decreased
- 11β-HSD1 mRNA expression level in liver (11β-HSD1; HF+TT1, 10 mg/kg/day oral): decreased
- 11β-HSD1 mRNA expression level in liver (11β-HSD1; HF+TT2, 20 mg/kg/day oral): decreased
- 11β-HSD1 mRNA expression level in liver (11β-HSD1; HF+TT3, 40 mg/kg/day oral): decreased
- expression level of p-AMPK/t-AMPK proteins in liver (phospho-AMPK(Thr172); HF+TT1, 10 mg/kg/day oral): significantly increased
- expression level of phospho-AMPK/total-AMPK in skeletal muscle (phospho-AMPK(Thr172); HF+TT1, 10 mg/kg/day oral): significantly increased
- expression level of p-AMPK/t-AMPK proteins in liver (phospho-AMPK(Thr172); HF+TT2, 20 mg/kg/day oral): significantly increased
- expression level of phospho-AMPK/total-AMPK in skeletal muscle (phospho-AMPK(Thr172); HF+TT2, 20 mg/kg/day oral): significantly increased
- expression level of p-AMPK/t-AMPK proteins in liver (phospho-AMPK(Thr172); HF+TT3, 40 mg/kg/day oral): significantly increased
- expression level of phospho-AMPK/total-AMPK in skeletal muscle (phospho-AMPK(Thr172); HF+TT3, 40 mg/kg/day oral): significantly increased
- Blood glucose ([1]; HF+TT1, 10 mg/kg/day oral): 90.44 mg/dL
- Blood glucose ([1]; HF+TT2, 20 mg/kg/day oral): 82.89 mg/dL
- Blood glucose ([1]; HF+TT3, 40 mg/kg/day oral): 77.78 mg/dL
- Plasma FFA ([1]; HF+TT1, 10 mg/kg/day oral): 0.95 meq/L
- Plasma FFA ([1]; HF+TT2, 20 mg/kg/day oral): 0.87 meq/L
- Plasma FFA ([1]; HF+TT3, 40 mg/kg/day oral): 0.81 meq/L
- Insulin ([1]; HF+TT1, 10 mg/kg/day oral): 2.982 µg/L
- Leptin ([1]; HF+TT1, 10 mg/kg/day oral): 9.827 ng/mL
- Insulin ([1]; HF+TT2, 20 mg/kg/day oral): 2.625 µg/L
- Leptin ([1]; HF+TT2, 20 mg/kg/day oral): 8.468 ng/mL
- Insulin ([1]; HF+TT3, 40 mg/kg/day oral): 2.190 µg/L
- Leptin ([1]; HF+TT3, 40 mg/kg/day oral): 6.439 ng/mL
- TC ([1]; HF+TT1, 10 mg/kg/day oral): 120.55 mg/dL
- TG ([1]; HF+TT1, 10 mg/kg/day oral): 84.85 mg/dL
- TC ([1]; HF+TT2, 20 mg/kg/day oral): 114.93 mg/dL
- TG ([1]; HF+TT2, 20 mg/kg/day oral): 83.63 mg/dL
- TC ([1]; HF+TT3, 40 mg/kg/day oral): 112.46 mg/dL
- TG ([1]; HF+TT3, 40 mg/kg/day oral): 82.31 mg/dL
- SREBP-1c mRNA expression level in liver (SREBP-1c; HF+TT1, 10 mg/kg/day oral): decreased
- SREBP-1c mRNA expression level in liver (SREBP-1c; HF+TT2, 20 mg/kg/day oral): decreased
- SREBP-1c mRNA expression level in liver (SREBP-1c; HF+TT3, 40 mg/kg/day oral): decreased
- protein expression level of phospho-Akt(Ser473)/total-Akt(Ser473) [2]: increase
- FAS protein expression level in adipose tissue (FAS; HF+TT1, 10 mg/kg/day oral): significantly decreased
- FAS protein expression level in liver (FAS; HF+TT1, 10 mg/kg/day oral): significantly decreased
- FAS protein expression level in adipose tissue (FAS; HF+TT2, 20 mg/kg/day oral): significantly decreased
- FAS protein expression level in liver (FAS; HF+TT2, 20 mg/kg/day oral): significantly decreased
- FAS protein expression level in adipose tissue (FAS; HF+TT3, 40 mg/kg/day oral): significantly decreased
- FAS protein expression level in liver (FAS; HF+TT3, 40 mg/kg/day oral): significantly decreased
- membrane expression level of GLUT4 in skeletal muscle (membrane GLUT4; HF+TT1, 10 mg/kg/day oral): significantly increased
- membrane expression level of GLUT4 in skeletal muscle (membrane GLUT4; HF+TT2, 20 mg/kg/day oral): significantly increased
- membrane expression level of GLUT4 in skeletal muscle (membrane GLUT4; HF+TT3, 40 mg/kg/day oral): significantly increased

Source: patent publication US20190030046A1, “USE OF PURE COMPOUNDS EXTRACTED FROM ANTRODIA CAMPHORATA” (priority 2016, published 2019)
